Here are results for 16 compounds from ChEMBL document CHEMBL3399957, “Synthesis and SAR studies of analogues of 4-(3,3-dimethyl-butyrylamino)-3,5-difluoro-N-thiazol-2-yl-benzamide (Lu AA41063) as adenosine A2A receptor ligands with improved aqueous solubility” (Bioorg Med Chem Lett, 2015).

Molecules are shown by their SMILES. ≈ marks a conversion by molar mass, not a printed value.

The target in data set [1] is T1, Adenosine receptor A2a (Homo sapiens, UniProt P29274). Put plainly: Antagonist activity at human adenosine A2A receptor.
T1 sequence (P29274 whole entry): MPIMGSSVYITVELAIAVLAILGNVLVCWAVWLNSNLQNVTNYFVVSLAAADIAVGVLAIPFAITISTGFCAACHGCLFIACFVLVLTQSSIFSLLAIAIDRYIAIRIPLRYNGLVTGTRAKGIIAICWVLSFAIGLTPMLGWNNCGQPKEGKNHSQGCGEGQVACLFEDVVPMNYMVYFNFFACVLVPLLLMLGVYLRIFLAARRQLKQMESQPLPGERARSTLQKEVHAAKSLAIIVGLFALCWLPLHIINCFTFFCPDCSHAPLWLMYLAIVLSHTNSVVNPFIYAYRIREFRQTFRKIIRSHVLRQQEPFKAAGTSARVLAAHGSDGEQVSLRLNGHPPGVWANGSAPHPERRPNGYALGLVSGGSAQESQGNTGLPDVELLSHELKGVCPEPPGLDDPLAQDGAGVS
Data set [2] is described as follows: Aqueous solubility of the compound. Format: physicochemical. As to conditions: buffer.
Data set [3] addresses T1, Adenosine receptor A2a. The data set is described as follows: Displacement of radioligand from human adenosine A2A receptor at 1000 nM relative to control.
A short description of data set [4]: Intrinsic clearance in human liver microsomes. Format: ADME. As to conditions: read-out: CLH (converted).
Data set [5] has as its target Cytochrome P450 2C9 (Homo sapiens, UniProt P11712). Put plainly: Inhibition of CYP2C9 (unknown origin). Format: ADME.
Data set [6] has as its target Cytochrome P450 2C19 (Homo sapiens, UniProt P33261). The data set is described as follows: Inhibition of CYP2C19 (unknown origin). Format: ADME.
Data set [7] deals with Cytochrome P450 2D6 (Homo sapiens, UniProt P10635). The data set is described as follows: Inhibition of CYP2D6 (unknown origin). Format: ADME.
Chain of Cytochrome P450 2D6 (P10635 whole entry): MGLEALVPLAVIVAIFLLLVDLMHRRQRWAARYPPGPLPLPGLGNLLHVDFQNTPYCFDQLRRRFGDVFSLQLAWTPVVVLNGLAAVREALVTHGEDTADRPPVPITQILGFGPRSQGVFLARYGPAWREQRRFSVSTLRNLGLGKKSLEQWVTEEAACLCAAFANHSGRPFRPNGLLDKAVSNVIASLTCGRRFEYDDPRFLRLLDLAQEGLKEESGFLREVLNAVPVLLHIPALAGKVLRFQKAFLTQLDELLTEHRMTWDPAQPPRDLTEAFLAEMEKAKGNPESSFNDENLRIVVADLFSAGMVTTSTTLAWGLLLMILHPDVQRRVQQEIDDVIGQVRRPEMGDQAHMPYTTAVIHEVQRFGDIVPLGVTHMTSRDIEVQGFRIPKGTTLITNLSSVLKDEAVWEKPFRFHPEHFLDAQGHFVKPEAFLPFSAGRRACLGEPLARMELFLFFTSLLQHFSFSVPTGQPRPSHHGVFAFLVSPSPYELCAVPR
Data set [8] has as its target Cytochrome P450 3A4 (Homo sapiens, UniProt P08684). Put plainly: Inhibition of CYP3A4 (unknown origin). It counts as ADME.
In data set [9] the target is T2, Cytochrome P450 1A2 (Homo sapiens, UniProt P05177).
T2 sequence (P05177 whole entry): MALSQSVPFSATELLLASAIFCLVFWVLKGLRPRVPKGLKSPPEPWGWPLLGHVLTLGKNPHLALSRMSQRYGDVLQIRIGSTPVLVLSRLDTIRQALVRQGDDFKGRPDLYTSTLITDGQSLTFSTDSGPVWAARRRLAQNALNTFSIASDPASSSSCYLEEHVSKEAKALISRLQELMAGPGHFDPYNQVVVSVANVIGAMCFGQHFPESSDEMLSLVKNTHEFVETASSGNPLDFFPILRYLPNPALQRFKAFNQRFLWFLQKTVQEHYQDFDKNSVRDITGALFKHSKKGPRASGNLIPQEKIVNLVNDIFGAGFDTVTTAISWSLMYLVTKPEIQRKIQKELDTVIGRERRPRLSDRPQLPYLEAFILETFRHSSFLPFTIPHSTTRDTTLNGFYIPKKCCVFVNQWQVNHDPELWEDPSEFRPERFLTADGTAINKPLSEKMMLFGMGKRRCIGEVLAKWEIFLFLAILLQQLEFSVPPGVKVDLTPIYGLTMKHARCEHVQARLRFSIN
Put plainly: Inhibition of CYP1A2 (unknown origin). Format: ADME.

Data set [10] can be described thus: Aqueous solubility of the compound at pH 7.4. It counts as physicochemical. As to conditions: buffer.

Chain of Cytochrome P450 2C19 (P33261 whole entry): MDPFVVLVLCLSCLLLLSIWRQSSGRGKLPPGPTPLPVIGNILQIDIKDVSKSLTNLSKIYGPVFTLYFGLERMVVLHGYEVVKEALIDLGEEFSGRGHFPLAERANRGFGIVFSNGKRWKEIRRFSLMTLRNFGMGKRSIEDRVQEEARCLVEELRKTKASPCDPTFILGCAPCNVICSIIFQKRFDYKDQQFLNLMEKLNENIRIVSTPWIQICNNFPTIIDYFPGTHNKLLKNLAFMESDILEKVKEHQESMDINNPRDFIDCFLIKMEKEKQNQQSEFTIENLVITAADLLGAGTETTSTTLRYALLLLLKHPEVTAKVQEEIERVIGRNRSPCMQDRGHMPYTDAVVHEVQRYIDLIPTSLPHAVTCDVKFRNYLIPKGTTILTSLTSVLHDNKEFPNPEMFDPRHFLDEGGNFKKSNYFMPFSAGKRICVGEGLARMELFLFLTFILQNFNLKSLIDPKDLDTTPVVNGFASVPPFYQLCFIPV
Chain of Cytochrome P450 3A4 (P08684 whole entry): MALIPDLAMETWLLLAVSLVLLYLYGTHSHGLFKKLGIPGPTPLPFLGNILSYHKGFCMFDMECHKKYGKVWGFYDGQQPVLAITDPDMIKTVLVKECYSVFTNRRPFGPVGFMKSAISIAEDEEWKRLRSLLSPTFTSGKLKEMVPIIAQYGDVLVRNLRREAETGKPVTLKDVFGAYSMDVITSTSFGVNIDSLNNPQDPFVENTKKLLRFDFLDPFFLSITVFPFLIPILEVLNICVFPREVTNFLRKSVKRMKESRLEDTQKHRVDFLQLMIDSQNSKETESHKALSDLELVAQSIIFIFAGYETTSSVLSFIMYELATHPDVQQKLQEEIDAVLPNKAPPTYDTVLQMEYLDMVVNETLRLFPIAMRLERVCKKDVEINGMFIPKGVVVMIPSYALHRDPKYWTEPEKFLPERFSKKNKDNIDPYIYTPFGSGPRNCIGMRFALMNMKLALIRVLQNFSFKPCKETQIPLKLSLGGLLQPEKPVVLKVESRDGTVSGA
Chain of Cytochrome P450 2C9 (P11712 whole entry): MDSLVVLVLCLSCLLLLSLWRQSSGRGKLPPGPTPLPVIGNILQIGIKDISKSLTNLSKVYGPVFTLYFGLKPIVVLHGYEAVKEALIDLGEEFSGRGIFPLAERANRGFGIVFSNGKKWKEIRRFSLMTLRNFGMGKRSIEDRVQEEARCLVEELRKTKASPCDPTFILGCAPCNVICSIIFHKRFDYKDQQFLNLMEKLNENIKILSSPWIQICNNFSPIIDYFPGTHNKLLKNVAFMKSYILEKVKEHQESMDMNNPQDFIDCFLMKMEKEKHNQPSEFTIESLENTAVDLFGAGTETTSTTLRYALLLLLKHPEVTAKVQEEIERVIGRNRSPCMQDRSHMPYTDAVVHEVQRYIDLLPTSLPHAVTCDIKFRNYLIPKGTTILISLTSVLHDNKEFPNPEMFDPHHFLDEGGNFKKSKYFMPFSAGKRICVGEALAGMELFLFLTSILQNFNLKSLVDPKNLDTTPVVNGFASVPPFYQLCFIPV

For the compound `CC(C)CC(=O)Nc1ccc(C(=O)Nc2nccs2)cc1`, the affinity in data set [1] corresponds to a Ki of 59 nM. In data set [1], `CC(C)(O)CC(=O)Nc1ccc(C(=O)Nc2nccs2)cc1` had a Ki of 1100 nM. In turn, `CC(C)(C)CC(=O)Nc1ccc(C(=O)Nc2nccs2)nc1` displayed a Ki in [1] of 300 nM. The amount in solution in [2] (solubility) came to 10 µg/mL (≈ 31.4 µM). For the compound `CCN(CC)CCCCC(=O)Nc1ccc(C(=O)Nc2nccs2)cc1`, the affinity in data set [1], expressed as Ki, was 830 nM. With `Cc1cc(C(=O)Nc2nccs2)ccc1NC(=O)CN(C)C`, in data set [3], the inhibition turned out to be 1%. `CC(CCN1CCOCC1)CC(=O)Nc1ccc(C(=O)Nc2nccs2)cc1` (centres undefined): the CLint scaled in [4] was 10.3 mL/min/kg. Moreover, the affinity in [1], expressed as Ki, was 110 nM. For the same compound, the IC50 in data set [5] was more than 40000 nM; in data set [6] it was more than 40000 nM; in data set [7], 18000 nM; in [8], more than 40000 nM; in data set [9], more than 40000 nM. Besides, the solubility in data set [10] is 116 µg/mL (≈ 288 µM). Turning to `CC(C)(C)CC(=O)Nc1ccc(C(=O)Nc2nccs2)cn1`, the inhibition in data set [3] turned out to be 30%. In turn, `O=C(CC1CCNC1)Nc1ccc(C(=O)Nc2nccs2)cc1` (centres undefined) showed an inhibitory constant (Ki) in data set [1] of more than 2100 nM. The same measure, in the same setting: with `CC(C)CCNc1ccc(C(=O)Nc2nccs2)cc1` the figure was 730 nM.

In [1], `CCN(CC)CCCCCC(=O)Nc1ccc(C(=O)Nc2nccs2)cc1` displayed a Ki of 240 nM.

Consider `CC(C)(C)CC(=O)Nc1ccc(CNc2nccs2)cc1`, for which the inhibition constant Ki in data set [1] is more than 6000 nM.

As for `O=C(CC1CCCN1)Nc1ccc(C(=O)Nc2nccs2)cc1` (centres undefined), the affinity in data set [1] corresponds to a Ki of 6600 nM. Same read-out and setting: for `CCN(CC)CCC(C)CC(=O)Nc1ccc(C(=O)Nc2nccs2)cc1` (centres undefined) the value was 110 nM; for `O=C(CC1CCCC1)Nc1ccc(C(=O)Nc2nccs2)cc1`, 67 nM. Still for that read-out and setting: with `Cc1cc(C(=O)Nc2nccs2)ccc1NC(=O)CC(C)(C)C` the figure was 67 nM; with `CCN(CC)CCCCCCCC(=O)Nc1ccc(C(=O)Nc2nccs2)cc1`, 130 nM.
